Entries after “also recorded” stand apart in the source; their conditions may differ. Bridge positions count the residues as written; N and C are the ends. Peptide text beside a SMILES is read from it.
Legend:
[1] = molecular target: T1, brain receptors (calcitonin receptors, crude rat brain membranes) (Rattus norvegicus, UniProt P32214); conditions: tubes pretreated with peptide, 30 min at 4° C.
T1 sequence (P32214 25-516): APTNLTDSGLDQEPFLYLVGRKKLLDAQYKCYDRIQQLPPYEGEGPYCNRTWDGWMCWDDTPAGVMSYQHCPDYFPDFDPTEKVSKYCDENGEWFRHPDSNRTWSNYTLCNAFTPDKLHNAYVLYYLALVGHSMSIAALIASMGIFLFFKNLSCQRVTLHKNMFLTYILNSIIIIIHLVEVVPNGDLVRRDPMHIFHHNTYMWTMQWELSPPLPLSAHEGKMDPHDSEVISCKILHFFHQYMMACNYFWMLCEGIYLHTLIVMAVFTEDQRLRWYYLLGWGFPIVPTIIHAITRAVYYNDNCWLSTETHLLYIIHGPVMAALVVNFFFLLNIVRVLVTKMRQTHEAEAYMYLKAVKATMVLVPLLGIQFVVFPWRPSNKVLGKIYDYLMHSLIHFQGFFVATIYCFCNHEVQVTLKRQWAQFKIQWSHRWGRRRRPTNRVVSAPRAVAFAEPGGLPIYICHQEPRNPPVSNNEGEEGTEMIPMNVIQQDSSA

[2] = system: male Sprague-Dawley rats; assay: In vivo relative hypocalcemic potency in rats (Example 10); design: species or system rat
Protocol: The relative hypocalcemic potency of MCT-II and SCT-I was assessed by giving 3 to 4 week-old male Sprague-Dawley rats (Charles River Breeding Laboratories) subcutaneous injections of hormone in 0.9% saline containing 0.1% BSA. In each experiment, 25 rats were divided into 5 groups of 5 rats each and each group given either saline alone or saline with hormone. Blood samples were obtained by cardiac puncture from the ether-anesthetized rats 1 hr after injection. 200 μl of the blood plasma was diluted in 5 ml of 5% trichloroacetic acid-1000 ppm lithium (Chem-Chek Consulting Inc., South Boundbrook, NJ) and centrifuged before determining the calcium concentration by plasma emission spectrometry (Beckman Spectra Span IV™, Beckman Instruments). Calcium standards were also purchased from Chem-Chek Consulting Inc.

IC50 for brain receptors, calculated from theoretical curves fitted to the data [1]: 0.6 nM
SMILES: CC(C)C[C@H](NC(=O)[C@H](CCCCN)NC(=O)[C@H](CCC(N)=O)NC(=O)[C@H](CC(C)C)NC(=O)[C@H](CCC(N)=O)NC(=O)[C@H](CCC(N)=O)NC(=O)[C@H](CC(C)C)NC(=O)[C@H](CC(C)C)NC(=O)[C@@H]1CSSC[C@H](N)C(=O)N[C@@H](CO)C(=O)N[C@@H](CC(N)=O)C(=O)N[C@@H](CC(C)C)C(=O)N[C@@H](CO)C(=O)N[C@@H]([C@@H](C)O)C(=O)N1)C(=O)N[C@@H](CC(C)C)C(=O)N[C@@H](CCC(N)=O)C(=O)N[C@@H](CCCCN)C(=O)N[C@@H](CC(C)C)C(=O)N[C@@H](CCCCN)C(=O)N[C@@H](CCC(N)=O)C(=O)N[C@@H](Cc1ccc(O)cc1)C(=O)N1CCC[C@H]1C(=O)N[C@@H](CCCNC(=N)N)C(=O)N[C@H](C(=O)N[C@@H](CC(N)=O)C(=O)N[C@H](C(=O)NCC(=O)N[C@@H](CO)C(=O)NCC(=O)N[C@H](C(=O)N1CCC[C@H]1C(N)=O)[C@@H](C)O)[C@@H](C)O)[C@@H](C)O [MCT-II] (H-CSNLSTCLLQQLQKLLQKLKQYPRTNTGSGTP-NH2; disulfide 1-7; N-terminus assumed)
Activity relative to MCT-I ([2]; in all assays used to compare them): 10 times
Hypocalcemic potency relative to SCT-I ([2]; subcutaneous, 0.1 to 100 ng/100 g body weight, 1 hr after injection, b99: all assays used to compare them): indistinguishable from that of our preparation of SCT-I; also recorded: as active as SCT-I

— patent US4663309A, “Novel peptide hormones with calcitonin-like activity” (University Patents, Inc., priority 1985, dated 1987)
